Source: patent US20250206704A1, “ENGINEERED IONOPHORES FOR TRANSPORT OF METAL IONS” (The Brigham and Women's Hospital, Inc., priority 2022, published 2025)
Values after ≈ are worked out from the molar mass of the structure shown. Like-named read-outs stand apart in the source and are kept apart here.

Legend:
[1] = test system: Staphylococcus epidermidis; assay: MIC, broth microdilution; format: cell-based
Description: (§1) Next, Applicants evaluated the antibacterial activities of the ionophores. First, Applicants determined their minimum inhibitory concentration (MIC) in the gram-positive bacterium that causes hospital-acquired infections, Staphylococcus epidermidis.
(§2) Applicants reasoned that limiting extracellular zinc with EDTA would abolish ionophore activity by depleting the available metal ions for membrane transport. […] [24]
(§3) Staphylococcus epidermidis ATCC® 12228™, Staphylococcus caprae ATCC® 51549™, Bacillus subtilis ATCC® 6051™, and Bacillus cereus ATCC® 14579™ were grown in cation-adjusted Mueller-Hinton broth (CA-MHB) (catalog no. 90922, Sigma) as per the Clinical and Laboratory Standards Institute guidelines.2 Bacteria were routinely grown at 37° C. under aerobic conditions.
(§4) The MIC assay was performed according to the Clinical and Laboratory Standards Institute protocols.^3 The antibacterial activities of the compounds were measured using the broth microdilution method. Serial dilutions of compounds were prepared in cation-adjusted Müller Hinton Broth. Each dilution (100 μL) was dispensed to each well of a round-bottom plate to obtain final concentrations ranging from 0.07815-40 μM. Bacteria were grown at 37° C. overnight on cation-adjusted Müller Hinton Broth. The bacterial solution was prepared in 0.9% saline and adjusted to obtain an OD600=0.1 using a SpectraMax M5 (Molecular Devices). The resultant suspension was diluted 1:20 with cation-adjusted Müller Hinton Broth. The resulting mixture (10 μL) was added to each well of the plates (approximately 5×10^4 CFU/well), mixed, and incubated at 37° C. for 24 h. The MIC value was determined as the minimum concentration that inhibited the growth of bacteria.

[2] = UV/Vis titration, stability constant (logK) with ZnCl2; format: physicochemical; conditions: UV/Vis titration with ZnCl2, TitrationFit
Description: Applicants validated the design principles by confirming that the silyl group lowered the binding affinity and shielded the hydrophilic pocket. […] [17] […] Applicants confirmed that all compounds bound Zn^II with 1:1 stoichiometry (FIG. 12). […] Applicants superimposed the X-ray structure of the TIPS-containing Zn^II:9 complex with the literature precedented Zn^II:1 and observed significant structural distortion in the Zn^II:9 complex, which could explain the lower logK.
A solution of ligand was prepared in acetonitrile. The starting concentration was chosen to be around 0.10 mM, based on the absorption maximum of the compound. This solution (2.5 mL) was pipetted into a quartz cuvette with a 1-cm optical path length. The titration was performed by the stepwise addition of a 10-mM ZnC12 solution in acetonitrile. The absorption spectra were measured over the range of 250-800 nm. The calculation of the stability constants was accomplished using TitrationFit.1

U2OS cells [3] = assay: Zinc imaging assay (DA-ZP1 fluorescence) of ionophore activity in U2OS cells; format: cell-based; conditions: for ionophore activity (DA-ZP1 fluorescence): U2OS cells, 10 μM Zn(II) and 5 μM compound
Description: A number of bispicolyl-based Zn^II-chelators were synthesized with increasing size at the ortho-position of phenolic OH by a one-step reductive amination between bispicolyl-amine and commercially available 3-substituted salicylaldehydes. Applicants examined the ionophore activity of bispicolyl analogs with methyl (Me, 2), isopropyl (iPr, 3), and tert-butyl (tBu, 4) substitutions (FIG. 1A). […] [13] The cells were first treated with ZnCl2 and ionophore candidates followed by DA-ZP1 treatment and fluorescence measurement.
Applicants experimentally determined the ionophore activity of these silyl-based compounds using the aforementioned DAZ-P1 assay in U2OS cells.
Applicants also determined metal-ion interference of the silyl-based ionophores with focused efforts on 8. Applicants designed a competition assay wherein Applicants pre-treated equimolar amounts of various metal ions, Mg^II, Ca^II, Mn^II, Fe^II, and Na^I, with 10 μM of Zn^II for 1 hour before treatment with DA-ZP1.
Finally, Applicants compared the activity of the designed compounds against known ionophores (FIGS. 2 and 11). […] [16]
In a 96-well plate, 20,000 U2OS cells were plated per well and cultured for 24 h in the incubator set to 37° C. with 5% CO2. […] The medium containing the compound was removed, and the cells were washed with 3×100 μL of fresh medium, and finally another 100 μL of 2 μM of DA-ZP1 was added to the corresponding cell culture medium containing HCS NuclearMask Blue Stain. The cells were again kept for 1 h in the incubator. The medium containing compound was removed, and the cells were washed with 1×100 μL of PBS and 2×100 μL of fresh medium, and finally, another 100 μL of fresh, dye-free medium was added. The cells were immediately imaged using a high-content fluorescence microscope (Operetta Phenix) in both the DAPI and FITC channels at 20× magnification. Images were analyzed using the Harmony software, and data were plotted using GraphPad Prism 9.

[4] = test system: S. epidermidis, S. caprae, B. subtilis, B. cereus; assay: Average MIC over the four gram-positive strains; format: cell-based
Protocol: as §1, §4

bacteria vs U2OS cells = assay: Antibacterial selectivity (average molar MIC in bacteria vs EC50 in U2OS cells); format: cell-based
U2OS cells [5] = assay: U2OS cell viability assay (CellTiter-Glo); format: cell-based; conditions: Homo sapiens, cell viability, 48 h, 5 μM Zn^II, read-out: U2OS EC50 + 5 μM Zn^II
Protocol: as §2
U2OS cells were seeded in black 384-well plates at a density of 3,000 cells per well in 25 μL of medium per well. After seeding, the cells were left to adhere overnight. The compounds to be tested were added to the designated culture plates in 25 μL of medium in triplicate with a normalized DMSO concentration (0.05%) in all treatments, and the plates were placed at 37° C. in a humidified atmosphere containing 5% CO2. After 48 h, 40 μl of CellTiter-Glo (Promega) was added to each well and incubated for 30 min, after which the plate luminescence was analyzed in a PerkinElmer EnVision Manager 1.13 (PerkinElmer). The average growth of treated cells was calculated by correcting the values for background luminescence and was subsequently normalized to the average of the two lowest treatments of the compound in question. Data were plotted and fitted to a dose-response curve using GraphPad Prism 9.

Staphylococcus caprae = assay: MIC, broth microdilution; format: cell-based; conditions: Table 4, read-out: Strain MIC S. caprae
Protocol: as §1, §3, §4

Bacillus cereus = assay: MIC, broth microdilution; format: cell-based; conditions: Table 4, read-out: Strain MIC B. cereus
Protocol: as §1, §3, §4

Bacillus subtilis = assay: MIC, broth microdilution; format: cell-based; conditions: Table 4, read-out: Strain MIC B. subtilis
Protocol: as §1, §3, §4

[6] = Table 4, read-out: Strain MIC S. epidermidis
[7] = read-out: Average MIC (molar, in brackets)
[8] = ratio of average molar MIC and U2OS EC50, Table 4

SMILES | change of MIC with additional Zn^II in the media [1] | change of MIC in presence of EDTA ([1]; 50 μM EDTA) | MIC [1, 6] [µg/mL] | MIC ([1]; read-out: MIC) [µg/mL] | logK (Zn^II binding) [2] | ionophore activity (DA-ZP1 fluorescence) (U2OS cells [3]) | MIC ([4]; read-out: Average MIC) [µg/mL] | MIC [4, 7] [µM] | MIC ([4]; read-out: average MIC) [µg/mL] | antibacterial selectivity (bacteria vs U2OS cells) [times] | antibacterial selectivity (bacteria vs U2OS cells; [8]) | CC50 (U2OS cells [5]) [µM] | MIC (Staphylococcus caprae) [µg/mL] | MIC (Bacillus cereus) [µg/mL] | MIC (Bacillus subtilis) [µg/mL] | metal-ion interference with ionophore activity (average fluorescence intensity) (U2OS cells [3]; competition: 10 μM Mg^II, Ca^II, Mn^II, Fe^II or Na^I with 10 μM Zn^II and 10 μM compound)
CC(C)[Si](c1cccc(CN(Cc2ccccn2)Cc2ccccn2)c1O)(C(C)C)C(C)C [Compound 9, 2-((bis(pyridin-2-ylmethyl)amino)methyl)-6-(triisopropylsilyl)phenol] | unaltered | dramatically increased | 1.2 (≈ 2.6 µM) | ~1.2 (≈ 2.6 µM) | 6.9 | improved ionophore activity | 0.98 | 2.1 | 1 | 6.8 | 6.8 | 14.2 | 0.3 (≈ 0.65 µM) | 1.2 (≈ 2.6 µM) | 1.2 (≈ 2.6 µM) | 
CC(C)(C)[Si](C)(C)c1cccc(CN(Cc2ccccn2)Cc2ccccn2)c1O [Compound 8, 2-((bis(pyridin-2-ylmethyl)amino)methyl)-6-(tert-butyldimethylsilyl)phenol] |  |  | 4.2 (≈ 10 µM) | ~4.2 (≈ 10 µM) | 7.5 | improved ionophore activity | 3.4 | 8.1 |  | 9.4 | 9.4 | 76.5 | 1.1 (≈ 2.62 µM) | 4.2 (≈ 10 µM) | 4.2 (≈ 10 µM) | did not observe significant drops in average fluorescence intensity for most metal ions
